Results from patent publication US20160235807A1, “AGONISTS OF GUANYLATE CYCLASE USEFUL FOR DOWNREGULATION OF PRO-INFLAMMATORY CYTOKINES” (SYNERGY PHARMACEUTICALS, INC., priority 2013, published 2016).
One block for each molecule: values may come before it. Bridge positions count the residues as written; N and C are the ends. Square brackets hold non-standard residues; d marks the D form. Ends that are not written are not given here.

Legend:
[1] = system: myeloperoxidase (MPO) activity in colon tissues; assay: MPO activity in lysates from mid-colon tissues, DSS-induced colitis in BDF-1 mice; assay type: in vivo, mouse; conditions: 5-ASA 100 mg/kg
Procedure: (§1) A total of 40 samples were chosen for analysis of MPO activity and Ki-67 labeling from the treatment groups that received SP-333, its vehicle control (0.1M phosphate buffer, pH 7) and the reference compound (5-ASA). A random number generator (www.random.org) was employed to select samples from these groups (7 from each of the SP-333-recipient groups and 6 from each of the vehicle and 5-ASA groups).
Myeloperoxidase activity in colonic tissue samples was performed according to the method described (Krawisc et al., 1984). Briefly, the rate of change in absorbance at 450 nm was recorded when 20 μl of tissue extract was incubated with […] of reaction buffer containing 0.26 mg/ml 0-dianisidine and 0.6 μl/ml H2O2. Each reaction was performed in triplicate. The rate of reaction was determined (initial slope) and normalized to protein concentration of sample.

[2] = system: Ki-67 labeling of crypt epithelial cells; assay: Ki-67 labeling in large bowel cross sections, DSS-induced colitis in BDF-1 mice; assay type: in vivo, mouse; conditions: 5-ASA treated mice
From the text: as §1
Employing standard procedures, two non-serial sections from each animal, were de-waxed in xylene and rehydrated in graded alcohols to PBS (pH 7.4). Endogenous peroxidase was blocked by incubation in 0.3% […] for 30 min. Antigen retrieval was performed by placing the slides in 1 L of citrate buffer (pH 6) and microwaving at high power for 20 minutes. After cooling for 15 minutes, sections were incubated with 10% normal goat serum for 30 minutes to block non-specific binding Primary antibody (mouse monoclonal IgG, clone MIB-1, Dako) at 1/50 dilution was added and incubated for 1 hour at room temperature. Sections were washed and incubated with biotinylated secondary IgG antibody (1/200 dilution; Vector Labs Inc.), for 45 minutes at room temperature. Subsequently, slides were washed and incubated with ABC Elite reagents (Vector Labs Inc.), for 30 minutes at room temperature. […] Sections were counterstained with thionine, dehydrated and mounted.

DSS-induced colitis = DSS-induced colitis in BDF-1 mice; assay type: in vivo, mouse
Procedure: To evaluate the efficacy of plecanatide in DSS induced colitis model, 48 BDF-1 mice were divided into 8 treatment groups (6 mice/group). One group was not exposed to DSS (untreated control) and groups 2-8 were treated with 5% DSS in the drinking water on day 0. Plecanatide or SP-333 solutions formulated in 0.1M phosphate buffer (pH 7) was administered by oral gavage, once a day at 0.005, 0.05, 0.5, 2.5 and 5 mg/kg, from study day −1 (i.e. prior to initiation of DSS treatment) through day 6 for SP-333 or day 7 for plecanatide. DSS treatment was initiated on day 0 for groups 2-8 until the end of the study. Sulfasalazine (80 mg/kg) or 5-ASA (100 mg/kg) was used as positive control and was administered daily. Mice were sacrificed on day 7. The large intestine was removed and weighed. Distal section of the large intestine was collected and fixed as described above.
Disease activity index (DAI) was calculated by scoring in-life parameters starting from day −1 until the end of the study. Once daily, all mice were weighed and assessed for stool consistency, and the presence of overt blood in the stool or around the anus essentially similar to that reported earlier. Colitis severity was assessed by histopathological analyses of H&E stained tissue sections (Hegazi et al., 2005; Dave et al., 2009) employing the following criteria: (score 0) normal appearing crypts; (score 1) abnormal crypt pathology without ulceration; (score 2) depleted crypts with ulceration; (score 3) 20-50% depleted crypts and increased ulceration; (score 4) >50% depleted crypts with substantial ulceration and (score 5) totally ulcerated/inflamed colon with no crypts remaining. All slides were scored in a blinded manner. Colitis severity in TCRα−/− model was scored as previously described^25. All slides were scored in a blinded manner. Disease activity index (DAI) was calculated by assessing body weight, stool consistency, and the presence of overt blood in stools or around the anus, essentially similar to that reported earlier (Hamamoto et al., 1999).

NF-κB [3] = assay: Inhibition of NF-κB signaling in LPS-stimulated T84 cells, Western blot; assay type: cell-based, human; conditions: zaprinast 500 μM alone
NF-κB [4] = assay: as above; assay type: cell-based, human
Procedure: Approximately 1.5×10^6 T84 cells were seeded into 100 mm dishes and cultured essentially as described (Shailubhai et al. 2000). At 85-90% confluence, cells were washed and treated with 10 μg/ml lipopolysaccharides (LPS) from Escherichia coli (Sigma-Aldrich, St. Louis, Mo.) for 4 h. Subsequent to LPS treatment, cells were washed and replenished with fresh media containing 8-Bromo-cyclic GMP (8-Br-cGMP) at 0, 0.1, 1, 10, 100 and 1000 μM (Enzo Life Science, Farmingdale, N.Y.), or SP-333 at 0, 0.01, 0.1, 1 and 10 μM together with 500 μM of phosphodiesterase inhibitor Zaprinast (Sigma-Aldrich, St. Louis, Mo.) for 16 h before harvest. For analyzing phosphorylation status of IKK-α/β, T84 cells were stimulated with LPS (10 μg/ml) for 4 h followed by treatment with 0.1 and 1.0 μM of SP-333 in the presence of 500 μM Zaprinast, for 2 h. The control cells (without LPS treatment) were washed and refilled with fresh media and harvested simultaneously with treated cells. Nuclear and cytosolic extracts were prepared by the previously described method (Aiamkitsumrit et al. 2007). Protein concentration was measured with a Bio-Rad protein assay kit (Bio-Rad, Hercules, Calif.). The extracts were stored at −80° C. until use.
T84 cells at 85-90% confluence were washed and treated with 10 μg/ml Escherichia coli LPS (Sigma-Aldrich, St. Louis, Mo.) for 4 h.
Western Blot analysis: This was performed essentially as described^21 employing either 50 μg of cytoplasmic or 25 μg proteins of the nuclear fractions. The blots were probed overnight with primary antibodies of interest (anti-p65 antibody, 1:200 dilution; anti-IκB antibody 1:500 dilution; anti-phosphorylated p65 antibody, 1:250 dilution; anti-phosphorylated IκB antibody 1:250 dilution; all were from Santa Cruz Biotechnology (Santa Cruz, Calif.). Anti-IKK-β and phosphorylated IKK-α/β (Ser 176/180) were purchased from Cell Signaling Technology, Boston, Mass. and used at 1:500 dilution; anti-mouse or anti-rabbit antibodies conjugated to […] were used for chemiluminescence detection as recommended by manufacturer (GE Healthcare, Piscataway, N.J.).

Src = assay: Activation of Src and GCRA-mediated cGMP production by T84 cells (FIG. 13); assay type: cell-based, human; conditions: activation of Src
[5] = assay type: in vitro ADME
Procedure: The potency of test peptides to stimulate cGMP synthesis in T84 cells was assayed by a published procedure (Shailubhai et al. 2000). Briefly, confluent monolayers of T-84 cells in 24-well plates were washed twice with 250 μl of DMEM containing 50 mM HEPES (pH 7.4), pre-incubated at 37° C. for 10 min with 250 μl of DMEM containing 50 mM HEPES (pH 7.4) and 1 mM isobutylmethylxanthine (IBMX), followed by incubation with test peptide for 30 min. The medium was aspirated, and the reaction was terminated by the addition of 3% perchloric acid. Following centrifugation, and neutralization with 0.1 N NaOH, the resulting supernatant was used directly for measurements of intracellular cGMP using an ELISA kit (Caymen Chemical, Ann Arbor, Mich.). Results are expressed as pmol of cGMP/mg of protein in the cell extracts.
Plecanatide and SP-333 were incubated in simulated intestinal fluid (SIF) for 6-24 h. Inactivated SIF was used as a control. Following the treatment, samples were analyzed by HPLC by cGMP production in T84 cells. […] The active metabolite, SP-338 was characterized by MS and MS/MS and identified to be formed via removal of carboxyl terminal leucine possibly due to cleavage by carboxypeptidases.

[6] = molecular target: guanylate cyclase C (GC-C) receptor (human, UniProt P25092 24-1073); assay: cell-based or functional assay
[7] = 5-ASA 100 mg/kg, vs DSS alone or DSS plus vehicle

Chain of guanylate cyclase C (GC-C) receptor (P25092 24-1073): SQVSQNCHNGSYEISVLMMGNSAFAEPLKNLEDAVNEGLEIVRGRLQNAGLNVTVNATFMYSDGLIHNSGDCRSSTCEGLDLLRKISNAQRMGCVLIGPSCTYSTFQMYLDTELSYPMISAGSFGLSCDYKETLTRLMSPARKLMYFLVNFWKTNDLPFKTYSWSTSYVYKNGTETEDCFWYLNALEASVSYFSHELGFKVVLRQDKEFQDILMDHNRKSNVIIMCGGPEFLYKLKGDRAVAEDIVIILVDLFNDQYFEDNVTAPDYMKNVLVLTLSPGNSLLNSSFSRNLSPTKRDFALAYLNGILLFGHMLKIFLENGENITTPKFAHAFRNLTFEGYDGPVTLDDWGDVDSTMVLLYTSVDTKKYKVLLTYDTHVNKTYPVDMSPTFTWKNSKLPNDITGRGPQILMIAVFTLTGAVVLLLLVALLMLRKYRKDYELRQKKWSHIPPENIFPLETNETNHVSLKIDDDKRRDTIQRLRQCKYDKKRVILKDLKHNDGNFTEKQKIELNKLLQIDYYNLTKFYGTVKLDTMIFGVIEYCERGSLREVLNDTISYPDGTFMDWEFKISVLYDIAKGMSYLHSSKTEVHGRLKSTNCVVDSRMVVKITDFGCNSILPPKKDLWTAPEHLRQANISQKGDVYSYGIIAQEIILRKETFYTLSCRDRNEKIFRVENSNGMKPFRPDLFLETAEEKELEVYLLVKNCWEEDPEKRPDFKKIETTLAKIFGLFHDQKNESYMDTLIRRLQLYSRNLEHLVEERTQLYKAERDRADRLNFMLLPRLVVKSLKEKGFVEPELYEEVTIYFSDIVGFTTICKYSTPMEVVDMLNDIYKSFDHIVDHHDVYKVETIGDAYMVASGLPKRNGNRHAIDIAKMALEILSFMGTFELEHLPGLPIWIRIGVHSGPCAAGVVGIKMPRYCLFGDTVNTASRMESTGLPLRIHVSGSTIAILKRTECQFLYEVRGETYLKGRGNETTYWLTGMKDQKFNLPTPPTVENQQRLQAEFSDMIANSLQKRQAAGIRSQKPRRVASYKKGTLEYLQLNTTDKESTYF

Molecule: Nc1ccc(O)c(C(=O)O)c1 [5-ASA, 5-aminosalicylic acid, reference compound]
MPO activity compared to DSS treated animals [1]: considerably reduced
initial MPO activity ([1]; p=0.010): 0.029±0.004 units/minute
proportion of Ki-67 positive crypts [2]: 53.5±12.33%
histological evaluation of colon tissues (crypts) (DSS-induced colitis; 5-ASA 100 mg/kg): only patchy loss of crypts
mean DAI scores (DSS-induced colitis; [7]): lower
mean scores of colitis severity (DSS-induced colitis; [7]): lower
histopathology score (DSS-induced colitis; DSS+5-ASA 100 mg/kg, representative image FIG. 10F): 2

Molecule: CCCOc1ccccc1-c1nc2nn[nH]c2c(=O)[nH]1 [zaprinast, reference compound]
cGMP levels (NF-κB [3]): did not increase cGMP levels
NF-κB activation (NF-κB [4]; zaprinast 500 μM alone, T84 cells): did not inhibit NF-κB activation

Molecule: [Cl][Hg][Cl] [HgCl2]
GCRA-mediated cGMP production by T84 cells (Src): inhibited

Molecule: Nc1nc2c(nc(Br)n2[C@@H]2O[C@@H]3COP(=O)(O)O[C@H]3[C@H]2O)c(=O)[nH]1 [8-Br-cGMP, 8-Bromo-cyclic GMP, reference compound]
levels of phospho-p65 (NF-κB [4]; LPS 10 μg/ml 4 h, then 8-Br-cGMP (1 mM) 16 h, zaprinast 500 μM): reduced levels of phospho-p65 in a dose-dependent manner

Molecule: Asn^1-Asp^2-Glu^3-Cys^4-Glu^5-Leu^6-Cys^7-Val^8-Asn^9-Val^10-Ala^11-Cys^12-Thr^13-Gly^14-Cys^15 (NDECELCVNVACTGC) [SP-338]
biological activity of the major metabolite of plecanatide in SIF [5]: appears to retain biological activity

cGMP accumulation in T84 cells (EC50) [6]: 283 nM
cGMP synthesis in T84 cells (EC50) [6]: 283 nM
B1: SP-333 (peptide)
peptide: [dN]DECELCVNVACTGC[dL]
modifications: disulfide 4-12, 7-15

cGMP accumulation in T84 cells (EC50) [6]: 189 nM
B2: Plecanatide (SP-304) (peptide)
peptide: NDECELCVNVACTGCL
modifications: disulfide 4-12, 7-15
